For 1 molecule, Kd results are on record in article PMC6222666, “Rutacecarpine Inhibits Angiogenesis by Targeting the VEGFR2 and VEGFR2-Mediated Akt/mTOR/p70s6k Signaling Pathway” (Molecules : A Journal of Synthetic Chemistry and Natural …, 2018).

In this test the target is T1, VEGFR2 (vascular endothelial growth factor receptor 2) (Homo sapiens, UniProt P35968).
T1 construct: gene KDR
In words: SPR (Biacore T200, VEGFR2 immobilized on CM5 chip); also ELISA-based kinase assay IC50 […]. It is filed as binding.

T1 sequence (P35968 20-1356): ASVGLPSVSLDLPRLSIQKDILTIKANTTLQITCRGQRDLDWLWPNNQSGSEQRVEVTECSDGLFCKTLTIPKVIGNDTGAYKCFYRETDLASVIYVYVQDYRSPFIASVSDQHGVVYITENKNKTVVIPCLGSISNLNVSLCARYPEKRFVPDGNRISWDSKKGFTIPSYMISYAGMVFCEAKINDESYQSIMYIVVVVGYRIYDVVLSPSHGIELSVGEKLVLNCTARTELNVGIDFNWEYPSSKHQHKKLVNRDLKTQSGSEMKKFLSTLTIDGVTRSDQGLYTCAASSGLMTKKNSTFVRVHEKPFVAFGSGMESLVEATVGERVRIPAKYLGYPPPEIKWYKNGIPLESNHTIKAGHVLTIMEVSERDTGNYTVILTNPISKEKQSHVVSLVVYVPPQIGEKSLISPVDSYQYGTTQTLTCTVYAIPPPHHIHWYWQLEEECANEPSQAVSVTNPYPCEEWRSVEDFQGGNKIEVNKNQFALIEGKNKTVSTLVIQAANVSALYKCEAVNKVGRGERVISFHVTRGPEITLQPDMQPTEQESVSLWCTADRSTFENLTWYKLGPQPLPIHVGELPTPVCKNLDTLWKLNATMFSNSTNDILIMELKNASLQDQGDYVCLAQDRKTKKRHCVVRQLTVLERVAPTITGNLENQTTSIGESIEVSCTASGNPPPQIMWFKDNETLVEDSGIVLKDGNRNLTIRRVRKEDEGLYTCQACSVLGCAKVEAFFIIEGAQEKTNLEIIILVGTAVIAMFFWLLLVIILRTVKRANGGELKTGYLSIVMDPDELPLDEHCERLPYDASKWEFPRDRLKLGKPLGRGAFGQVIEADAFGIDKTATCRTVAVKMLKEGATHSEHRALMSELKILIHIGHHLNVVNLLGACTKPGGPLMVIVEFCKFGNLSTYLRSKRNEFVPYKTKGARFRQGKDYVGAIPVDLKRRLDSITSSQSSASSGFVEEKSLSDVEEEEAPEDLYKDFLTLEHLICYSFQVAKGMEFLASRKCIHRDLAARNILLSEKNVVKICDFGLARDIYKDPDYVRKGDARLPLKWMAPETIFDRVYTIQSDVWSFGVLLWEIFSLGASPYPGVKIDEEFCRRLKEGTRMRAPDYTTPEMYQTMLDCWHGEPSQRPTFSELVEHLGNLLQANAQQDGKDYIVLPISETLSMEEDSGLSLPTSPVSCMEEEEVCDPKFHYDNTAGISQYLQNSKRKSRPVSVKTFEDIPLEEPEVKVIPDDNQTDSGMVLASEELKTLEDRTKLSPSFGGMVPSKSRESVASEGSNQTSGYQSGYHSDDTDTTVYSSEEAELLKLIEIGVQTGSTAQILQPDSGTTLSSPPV

Regarding `O=c1c2ccccc2nc2n1CCc1c-2[nH]c2ccccc12` [rutaecarpine], the Kd was 0.471 µM.
